Where a chain is given by its changes, count along the chain named. “Also recorded” adds a separate entry of the source. Read-outs that look alike come from different tables or passages of the source.
B1: variant 10: humanized 3E10 variant, SEQ ID NOS: 14, 22, and 32 (protein)
chain 1: EVQLVESGGGLVQPGGSLRLSCAASGFTFSNYGMHWVRQAPGKGLEWVSYISSSSSTIYYADSVKGRFTISRDNAKNSLYLQMNSLRAEDTAVYYCARRGLLLDYWGQGTTVTVSS
chain 2: DIQMTQSPSSLSASVGDRVTITCRASKSVSTSSYSYMHWYQQKPGKAPKLLIKYASYLESGVPSRFSGSGSGTDFTLTISSLQPEDFATYYCQHSREFPWTFGQGTKVEIK
chain 3: DIQMTQSPSSLSASVGDRVTITCRASKSVSTSSYSYMHWYQQKPGKAPKLLIKYASYLESGVPSRFSGSGSGTDFTLTISSLQPEDFATYYCQHSREFPWTFGQGTKVEIKRADAAPGGGGSGGGGSGGGGSEVQLVESGGGLVQPGGSLRLSCAASGFTFSNYGMHWVRQAPGKGLEWVSYISSSSSTIYYADSVKGRFTISRDNAKNSLYLQMNSLRAEDTAVYYCARRGLLLDYWGQGTTVTVSSASTKGPSVFPLAPLESSGSDIQMTQSPSSLSASVGDRVTITCRASKSVSTSSYSYMHWYQQKPGKAPKLLIKYASYLESGVPSRFSGSGSGTDFTLTISSLQPEDFATYYCQHSREFPWTFGQGTKVEIKRADAAPGGGGSGGGGSGGGGSEVQLVESGGGLVQPGGSLRLSCAASGFTFSNYGMHWVRQAPGKGLEWVSYISSSSSTIYYADSVKGRFTISRDNAKNSLYLQMNSLRAEDTAVYYCARRGLLLDYWGQGTTVTVSS
B2: variant 13: humanized 3E10 variant, SEQ ID NOS: 17, 23, and 35, expressed in CHO cells (protein)
chain 1: B1 chain 1 with S54G
chain 2: B1 chain 2 with V15L, V19A, S28T, K46Q, A47P, F87A, Q104G
chain 3: DIQMTQSPSSLSASLGDRATITCRASKTVSTSSYSYMHWYQQKPGQPPKLLIKYASYLESGVPSRFSGSGSGTDFTLTISSLQPEDAATYYCQHSREFPWTFGGGTKVEIKRADAAPGGGGSGGGGSGGGGSEVQLVESGGGLVQPGGSLRLSCAASGFTFSNYGMHWVRQAPGKGLEWVSYISSGSSTIYYADSVKGRFTISRDNAKNSLYLQMNSLRAEDTAVYYCARRGLLLDYWGQGTTVTVSSASTKGPSVFPLAPLESSGSDIQMTQSPSSLSASLGDRATITCRASKTVSTSSYSYMHWYQQKPGQPPKLLIKYASYLESGVPSRFSGSGSGTDFTLTISSLQPEDAATYYCQHSREFPWTFGGGTKVEIKRADAAPGGGGSGGGGSGGGGSEVQLVESGGGLVQPGGSLRLSCAASGFTFSNYGMHWVRQAPGKGLEWVSYISSGSSTIYYADSVKGRFTISRDNAKNSLYLQMNSLRAEDTAVYYCARRGLLLDYWGQGTTVTVSS

Columns and labels:
cell nuclei [1] = settings: known anti-DNA autoantibodies; cited from earlier work
DLD1 colon cancer cells = test: Protein L immunostain of variant 13 nuclear penetration with nuclear import inhibitors, DLD1 cells; assay type: cell-based; settings: 10 μM variant 13 co-incubated with 0, 10, 25, or 50 μM inhibitor
Procedure: (§1) For all experiments, cells were cultivated overnight to allow for attachment, followed by pretreatment with either control medium (absence of inhibitor), or medium containing inhibitor for durations previously-reported in the literature (see Table 1, below).
(§2) For endocytosis inhibition experiments, cells were cultivated in serum-free medium containing 1% v/v BSA to deplete endogenous serum levels. Following preincubation with inhibitors, cells were treated with either control medium or 10 μM variant 13, and the same dose of small molecule inhibitor for a further 30 minutes. For all experiments, cells were washed thrice, followed by immediate fixation with pre-chilled ice-cold ethanol. Subsequently, treated cells were probed using a protein L immunodetection approach to probe variant 13 nuclear uptake (Rattray et al., Biochem Biophys Res Commun 496, 858-864 (2018)). All monolayers were immediately imaged following color development on an Evos Fl microscope.
(§3) DLD-1 and A549 cells were treated with 10 μM variant 13 co-incubated with 0, 10, 25, or 50 μM concentrations of ivermectin. Relative intensity of protein L nuclear staining as compared to amount of stain in cells treated without ivermectin was also quantified by ImageJ.
(§4) DLD-1 cells and A549 cells were treated with 10 μM variant 13 co-incubated with 0, 10, 25, or 50 μM concentrations of importazole and then immunostained for protein L.
(§5) DLD-1 cells and A549 cells were treated with 10 μM variant 13 co-incubated with 0, 10, 25, or 50 μM concentrations of mifepristone and then immunostained for protein L.

A549 lung cancer cells = test: Protein L immunostain of variant 13 nuclear penetration with nuclear import inhibitors, A549 cells; assay type: cell-based; settings: 10 μM variant 13 co-incubated with 0, 10, 25, or 50 μM inhibitor
Procedure: as §1, §2, §3, §4, §5

MCF7 breast cancer cells = test: Uptake of rhodamine-labeled variant 13 into live MCF7 cells; assay type: cell-based; settings: 50 μM ivermectin
Procedure: Live MCF7 breast cancer cells were treated with control or rhodamine-labeled variant 13 (Rh-variant 13)+/−50 μM ivermectin and were then visualized under light and fluorescence microscopy. Ivermectin inhibited cellular/nuclear uptake of Rh-variant 13.

DLD1 cells [2] = test: SLE sera nuclear import with nuclear import inhibitors; assay type: cell-based; settings: pre- and co-treatment with inhibitor
Procedure: DLD1 cells were pre-treated with either control media, or media containing nuclear import inhibitors for four hours. Subsequent co-treatment with inhibitor and patient SLE serum (diluted 1:50) was performed for one hour at 37° C. Following treatment, cells were fixed, blocked and probed with an alkaline-phosphatase anti-human IgG primary antibody overnight (Fisher Scientific). Cell monolayers were washed, and color developed using NBT/BCIP reagent (Fisher Scientific) for the same duration across all experiments. Following chromogen color development, all monolayers were washed, and brightfield images acquired immediately on an Evos Fl microscope.

DLD1 cells [3] = test: Nuclear penetration of scleroderma autoantibody SSC and effect of ivermectin; assay type: cell-based
From the text: In addition to SLE, cell-penetrating autoantibodies are detected in other autoimmune diseases such as scleroderma. […] SSC was expressed in and purified from HEK293T cells. […] Ivermectin inhibited the nuclear uptake of SSC, confirming that ivermectin can modulate the nuclear-penetrating activity of autoantibodies from multiple autoimmune diseases.

DLD1 cancer cells = test: Uptake of rhodamine-labeled variant 13 into live DLD1 cells; assay type: cell-based; settings: 50 μM importazole
Procedure: Live DLD1 cancer cells were treated with control or rhodamine-labeled variant 13 (Rh-variant 13)+/−50 μM importazole and were then visualized under light and fluorescence microscopy.

cell nuclei [4] = test: Nuclear penetration of humanized 3E10 variants compared with 3E10 (D31N) di-scFv; assay type: cell-based; settings: for Nuclear localizing?: humanized 3E10 variants
From the text: A range of humanized 3E10 variants were generated with subtle differences in framework and CDR sequences.

Importin-β1 (KPNB1) = target: T1, Importin-β1 (KPNB1) (Homo sapiens, UniProt Q14974); test: Variant 13 nuclear penetration after siRNA knockdown of importin β1 in DLD1 cells; assay type: cell-based; settings: 10 μM variant 13 for 30 minutes, n=100 cells per treatment
T1 construct: endogenous in cells; host or cells: DLD1 cells
T1 sequence (Q14974 whole entry): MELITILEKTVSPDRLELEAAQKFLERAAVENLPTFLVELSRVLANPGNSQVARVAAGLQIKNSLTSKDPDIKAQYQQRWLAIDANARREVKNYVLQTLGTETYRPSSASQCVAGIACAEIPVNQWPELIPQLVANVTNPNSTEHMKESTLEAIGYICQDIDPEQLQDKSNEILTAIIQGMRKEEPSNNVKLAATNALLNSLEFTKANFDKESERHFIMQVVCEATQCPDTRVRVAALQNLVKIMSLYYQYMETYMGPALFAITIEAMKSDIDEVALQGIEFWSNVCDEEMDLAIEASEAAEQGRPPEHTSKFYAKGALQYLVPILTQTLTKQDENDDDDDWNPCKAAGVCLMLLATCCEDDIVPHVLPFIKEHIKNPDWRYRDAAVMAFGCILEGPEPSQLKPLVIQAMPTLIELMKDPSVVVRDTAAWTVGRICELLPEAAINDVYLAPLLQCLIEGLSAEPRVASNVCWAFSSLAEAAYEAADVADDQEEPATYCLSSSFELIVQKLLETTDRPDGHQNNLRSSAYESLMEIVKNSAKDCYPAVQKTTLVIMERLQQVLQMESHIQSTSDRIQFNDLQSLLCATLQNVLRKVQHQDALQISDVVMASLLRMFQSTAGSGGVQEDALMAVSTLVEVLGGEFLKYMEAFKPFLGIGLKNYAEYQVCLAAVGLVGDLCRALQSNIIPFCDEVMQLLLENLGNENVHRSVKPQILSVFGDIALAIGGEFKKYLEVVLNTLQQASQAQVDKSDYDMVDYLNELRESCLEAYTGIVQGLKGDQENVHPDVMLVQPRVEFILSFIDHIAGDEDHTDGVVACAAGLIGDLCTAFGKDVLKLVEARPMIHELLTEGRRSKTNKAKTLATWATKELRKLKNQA
Procedure: Importin-β1 (KPNB1) knockdown in DLD1 cells were generated using control (D-001206-14-05) and KPNB1 (importin β1, M-017523-01-0005) siRNA (Dharmacon). DLD1 cells were seeded into 24-well (western blot) or 96-well plates (cell penetration assays) overnight. Cell monolayers were transfected with siRNA, followed by media replacement at 24 hours, and evaluation at multiple time points post-transfection. Importin (31 expression was then evaluated by western blotting of cell lysates.
Knockdown of importin β1 in DLD1 cells by siRNA was next performed to further probe the role of this pathway in modulating variant 13 nuclear localization.

Row | Molecule | nuclear penetration by variant 13 (DLD1 colon cancer cells) | nuclear penetration by variant 13 (A549 lung cancer cells) | nuclear uptake of ANAs in SLE-19 (DLD1 cells [2]) | nuclear penetration compared to murine 3E10 (D31N) di-scFv prototype (cell nuclei [4]) | Nuclear localizing? (cell nuclei [4]) | other results
1 | 3E10: murine lupus anti-DNA monoclonal antibody produced by ATCC Accession No. PTA 2439 hybridoma [Variant 3E10] |  |  |  |  |  | Nuclear localizing? (cell nuclei [1]): Yes
2 | ivermectin | dose-dependent reduction | dose-dependent reduction |  |  |  | cellular/nuclear uptake of rhodamine-labeled variant 13 (MCF7 breast cancer cells): inhibited; nuclear staining / nuclear uptake of ANAs in SLE-4, 8, 9, and 19 (DLD1 cells [2]; serum diluted 1:50): reduced the nuclear staining; also recorded: blocked; nuclear uptake of SSC (DLD1 cells [3]): inhibited
3 | CC(Nc1nc(N2CCCC2)nc2ccccc12)c1ccccc1 (stereo not drawn) [importazole] | reduction | reduction | inhibit nuclear uptake of ANAs in SLE-19 in a dose-dependent manner |  |  | nuclear uptake of rhodamine-labeled variant 13 (DLD1 cancer cells): inhibited
4 | CC#C[C@]1(O)CC[C@H]2[C@@H]3CCC4=CC(=O)CCC4=C3[C@@H](c3ccc(N(C)C)cc3)C[C@@]21C [mifepristone] | reduction | reduction | inhibit nuclear uptake of ANAs in SLE-19 in a dose-dependent manner |  |  | 
5 | B1 |  |  |  | penetrated nuclei very well | Yes | 
6 | B2 |  |  |  | penetrated nuclei very well | Yes | variant 13 nuclear signal in importin β1 knockdown cells compared to cells with intact importin β1 (Importin-β1 (KPNB1)): significant reduction

Source: patent publication US12304970B2, “Nuclear localization signals, compositions formed therefrom, and methods of use thereof for delivery of cargo to the nucleus” (Yale University, priority 2018, dated 2025)
